For data set [1], the system named is PC-3. Put plainly: Induction of apoptosis in human PC-3 cells assessed as necrotic cells at 0.5 uM by Annexin V-FITC staining based flow cytometry (reference value: 0.48%). Format: functional.
In data set [2] the test system is PC-3. Kind of data set: Induction of cell cycle arrest in human PC-3 cells assessed as accumulation of cells at G2 phase at 2.5 uM by PI staining based flow cytometry (reference value: 7.75%). In kind it is functional. A general note: Flow cytometry measures light scatter and fluorescence of single cells or particles in a stream.
Data set [3] in a line: Toxicity in BALB/c mouse xenografted with human PC-3 cells assessed as change in ALT level at 5 mg/kg,ip administrated once every 4 days for 24 days by automatic biochemical analyzer. In kind it is organism-based. The note with it: in vivo, 576 h, time 24 day.
Data set [4] is described as follows: Toxicity in BALB/c mouse xenografted with human PC-3 cells assessed as change in ALT level at 20 mg/kg,ip administrated once every 4 days for 24 days by automatic biochemical analyzer. The following applies: in vivo, 576 h, time 24 day. Format: organism-based.
Data set [5] relates to PC-3. Kind of data set: Induction of cell cycle arrest in human PC-3 cells assessed as accumulation of cells at G2 phase at 0.5 uM by PI staining based flow cytometry (reference value: 7.75%). Format: functional.
Data set [6] has as its system Calu-1. Put plainly: Antiproliferative activity against human Calu-1 cells harboring KRAS G12C mutant assessed as inhibition of cell growth incubated for 72 hrs by MTT assay. Format: functional, cell-based. The note with it: Calu-1, 72 h. In general terms: Tetrazolium assays rely on reduction of a dye to a coloured formazan, in cell work by metabolically active cells.

In data set [7] the test system is PC-3. Put plainly: Inhibition of colony formation in human PC-3 cells incubated for 15 days by crystal violet staining based microscopic analysis. Format: functional, cell-based. The following applies: time 15.0 day.
For data set [8], the target named is T1, Son of sevenless homolog 1 (Homo sapiens, UniProt Q07889).
T1 sequence (Q07889 whole entry): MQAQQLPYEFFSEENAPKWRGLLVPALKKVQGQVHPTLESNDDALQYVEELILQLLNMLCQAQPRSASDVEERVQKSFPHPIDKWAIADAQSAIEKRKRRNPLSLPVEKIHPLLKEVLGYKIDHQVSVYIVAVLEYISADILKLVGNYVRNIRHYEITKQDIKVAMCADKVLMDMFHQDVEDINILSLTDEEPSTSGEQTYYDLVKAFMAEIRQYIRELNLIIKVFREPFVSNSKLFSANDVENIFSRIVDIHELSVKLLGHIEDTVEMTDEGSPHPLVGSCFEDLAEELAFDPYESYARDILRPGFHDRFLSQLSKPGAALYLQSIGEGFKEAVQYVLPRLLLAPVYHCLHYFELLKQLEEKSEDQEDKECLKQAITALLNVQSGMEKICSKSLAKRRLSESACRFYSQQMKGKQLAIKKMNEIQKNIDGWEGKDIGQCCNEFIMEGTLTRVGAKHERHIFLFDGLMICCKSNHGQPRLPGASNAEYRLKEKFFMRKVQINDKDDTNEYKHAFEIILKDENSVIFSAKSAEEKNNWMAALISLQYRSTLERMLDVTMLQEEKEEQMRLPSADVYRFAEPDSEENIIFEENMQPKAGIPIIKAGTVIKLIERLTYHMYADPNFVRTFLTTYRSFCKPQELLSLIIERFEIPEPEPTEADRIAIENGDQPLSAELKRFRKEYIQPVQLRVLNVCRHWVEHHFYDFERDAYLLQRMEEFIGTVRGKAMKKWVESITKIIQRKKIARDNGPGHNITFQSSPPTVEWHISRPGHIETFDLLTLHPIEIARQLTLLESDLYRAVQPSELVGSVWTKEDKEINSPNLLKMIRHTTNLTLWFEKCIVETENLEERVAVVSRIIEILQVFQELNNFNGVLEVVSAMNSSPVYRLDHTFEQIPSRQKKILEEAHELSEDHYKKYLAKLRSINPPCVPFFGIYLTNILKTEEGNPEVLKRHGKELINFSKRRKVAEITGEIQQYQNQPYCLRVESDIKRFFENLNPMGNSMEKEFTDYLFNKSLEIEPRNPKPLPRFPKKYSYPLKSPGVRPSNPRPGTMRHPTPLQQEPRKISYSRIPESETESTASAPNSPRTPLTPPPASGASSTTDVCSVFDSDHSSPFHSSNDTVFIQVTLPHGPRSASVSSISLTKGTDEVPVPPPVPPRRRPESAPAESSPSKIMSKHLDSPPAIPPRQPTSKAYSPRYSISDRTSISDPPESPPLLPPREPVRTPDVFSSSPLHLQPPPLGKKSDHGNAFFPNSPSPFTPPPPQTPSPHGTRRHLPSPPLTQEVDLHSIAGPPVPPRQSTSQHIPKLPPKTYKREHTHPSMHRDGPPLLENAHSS
Kind of data set: Inhibition of human recombinant SOS1.

The subject of data set [9] is PC-3. Kind of data set: Antiproliferative activity against human PC-3 cells transfected with control shRNA assessed as inhibition of cell growth incubated for 72 hrs by MTT assay. The note with it: PC-3, 72 h. Format: functional, cell-based.
Data set [10] relates to PC-3. Kind of data set: Antiproliferative activity against human PC-3 cells transfected with EGFR shRNA assessed as inhibition of cell growth incubated for 72 hrs by MTT assay. Format: functional, cell-based. The note with it: PC-3, 72 h.
The nature of data set [11]: Antiproliferative activity against human RWPE-1 cells assessed as inhibition of cell growth incubated for 72 hrs by MTT assay. Format: toxicity, cell-based.
The nature of data set [12]: Toxicity in BALB/c mouse xenografted with human PC-3 cells assessed as liver pathological change at 5 mg/kg,ip administrated once every 4 days for 24 days by hematoxylin and eosin staining based analysis. In kind it is organism-based. The note with it: in vivo, 576 h, time 24 day. (In general: In xenograft studies the graft and the host belong to different species.)

In data set [13] the test system is A549. Kind of data set: Antiproliferative activity against human A549 cells assessed as inhibition of cell growth incubated for 72 hrs by MTT assay. In kind it is functional, cell-based.
In data set [14] the test system is K562. Put plainly: Antiproliferative activity against human K562 cells assessed as inhibition of cell growth incubated for 72 hrs by MTT assay. In kind it is functional, cell-based.
Data set [15] is described as follows: Toxicity in BALB/c mouse xenografted with human PC-3 cells assessed as change in body weight at 20 mg/kg,ip administrated once every 4 days for 24 days. In kind it is organism-based. The following applies: in vivo, 576 h, time 24 day.
Data set [16] can be described thus: Toxicity in BALB/c mouse xenografted with human PC-3 cells assessed as spleen pathological change at 5 mg/kg,ip administrated once every 4 days for 24 days by hematoxylin and eosin staining based analysis. In kind it is organism-based. The following applies: in vivo, 576 h, time 24 day.
The target of data set [17] is T2, Epidermal growth factor receptor (Homo sapiens, UniProt P00533). Put plainly: Inhibition of EGFR in human PC-3 cells assessed as downregulation of AKT phosphorylation at 2.5 uM incubated for 15 mins by Western blotting analysis. In kind it is cell-based.
T2 sequence (P00533 whole entry): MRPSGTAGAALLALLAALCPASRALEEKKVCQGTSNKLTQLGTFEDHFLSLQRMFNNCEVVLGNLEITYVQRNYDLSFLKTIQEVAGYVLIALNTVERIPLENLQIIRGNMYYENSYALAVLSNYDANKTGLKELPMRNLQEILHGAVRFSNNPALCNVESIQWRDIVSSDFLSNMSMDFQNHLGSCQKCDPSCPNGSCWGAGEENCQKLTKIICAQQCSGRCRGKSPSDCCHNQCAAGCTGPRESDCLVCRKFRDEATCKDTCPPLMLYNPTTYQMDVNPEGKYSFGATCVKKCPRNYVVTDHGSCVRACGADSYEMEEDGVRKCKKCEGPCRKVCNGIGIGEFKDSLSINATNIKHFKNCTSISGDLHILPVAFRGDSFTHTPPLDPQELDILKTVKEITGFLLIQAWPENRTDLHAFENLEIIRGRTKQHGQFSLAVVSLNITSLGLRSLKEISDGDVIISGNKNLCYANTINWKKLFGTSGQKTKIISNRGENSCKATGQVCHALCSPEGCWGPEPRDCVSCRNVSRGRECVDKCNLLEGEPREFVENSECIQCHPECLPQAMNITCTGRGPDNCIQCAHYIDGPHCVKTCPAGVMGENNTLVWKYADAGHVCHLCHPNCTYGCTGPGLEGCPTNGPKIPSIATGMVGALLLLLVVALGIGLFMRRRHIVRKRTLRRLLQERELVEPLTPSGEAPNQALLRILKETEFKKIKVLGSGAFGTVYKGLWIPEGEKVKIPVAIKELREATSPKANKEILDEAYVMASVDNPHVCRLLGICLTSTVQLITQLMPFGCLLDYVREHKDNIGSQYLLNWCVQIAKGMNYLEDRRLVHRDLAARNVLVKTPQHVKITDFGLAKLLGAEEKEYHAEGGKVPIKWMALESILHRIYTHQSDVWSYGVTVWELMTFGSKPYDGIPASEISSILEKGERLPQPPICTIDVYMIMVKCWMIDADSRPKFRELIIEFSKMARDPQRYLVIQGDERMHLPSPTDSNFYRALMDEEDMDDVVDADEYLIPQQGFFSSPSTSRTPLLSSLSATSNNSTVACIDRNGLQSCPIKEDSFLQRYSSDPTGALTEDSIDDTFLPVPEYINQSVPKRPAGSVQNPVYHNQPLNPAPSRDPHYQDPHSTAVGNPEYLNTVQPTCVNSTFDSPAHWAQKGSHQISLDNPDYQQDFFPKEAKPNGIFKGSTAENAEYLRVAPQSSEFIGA
Data set [18] addresses T2, Epidermal growth factor receptor. Kind of data set: Inhibition of EGFR in human PC-3 cells assessed as downregulation of EGF-mediated AKT phosphorylation at 12.5 uM incubated for 15 mins in presence of EGF by Western blotting analysis. Format: cell-based.
Data set [19] in a line: Toxicity in BALB/c mouse xenografted with human PC-3 cells assessed as kidney pathological change at 5 mg/kg,ip administrated once every 4 days for 24 days by hematoxylin and eosin staining based analysis. Format: organism-based. The following applies: in vivo, 576 h, time 24 day.
In data set [20] the test system is PC-3. Put plainly: Induction of apoptosis in human PC-3 cells assessed as necrotic cells at 12.5 uM by Annexin V-FITC staining based flow cytometry (reference value: 0.48%). Format: functional.
Data set [21] concerns the target T2, Epidermal growth factor receptor. Kind of data set: Inhibition of EGFR (unknown origin) using ultra ULight GT peptide as substrate at 10 uM incubated for 2 hrs relative to control.
Data set [22] has as its system PC-3. Kind of data set: Induction of apoptosis in human PC-3 cells assessed as early apoptotic cells at 0.5 uM by Annexin V-FITC staining based flow cytometry (reference value: 2.64%). In kind it is functional.
For data set [23], the system named is PC-3. Put plainly: Induction of apoptosis in human PC-3 cells assessed as necrotic cells at 2.5 uM by Annexin V-FITC staining based flow cytometry (reference value: 0.48%). In kind it is functional.

Activity calls are given as the source filed them. No cut-off for these calls is given here.

Take `COc1cc2ncnc(N[C@H](C)c3cccc(F)c3)c2cc1OC1CCOCC1`: the Activity is 0.6% in [1]; 12.65% in data set [2]; “Non-Toxic” in data set [3]; “Non-Toxic” in data set [4]; 9.71% in data set [5]; “Toxic” in [12]. In addition, the Activity result in data set [15] is given as “Toxic”; in [16], “Toxic”; in data set [19], “Toxic”; in data set [20] it was 0.15%; in data set [22], 11.7%; in data set [23] it was 0.57%. Further, the IC50 in [6] stood at 0.55 µM; in data set [8] it was 0.0421 µM; in data set [9], 0.43 µM; in [10], 5.48 µM. Moreover, the inhibition entry in [7] was “Dose-Dependent Effect”; in data set [21] it was 100%. In data set [11], the IC50 at 72 h is > 10 µM. Besides, the outcome in data set [13] and in data set [14] was Active. Moreover, the inhibition entry in data set [17] and in [18] was “Active” in each case.

Broadly, the IC50 is the concentration at which inhibition is half-maximal. As usually defined, the inhibition is the relative decrease from the control value, in per cent.

Values taken from ChEMBL document CHEMBL5543153, “Discovery of a Potent Dual Son of Sevenless 1 (SOS1) and Epidermal Growth Factor Receptor (EGFR) Inhibitor for the Treatment of Prostate Cancer” (J Med Chem, 2024).
